Source: patent US20160022621A1, “COMPOSITION FOR ORAL ADMINISTRATION FOR BINDING ALDEHYDES IN THE GASTROINTESTINAL TRACT” (BIOHIT OYJ, priority 2013, published 2016)

Experiments:
[1] = Acetaldehyde-binding: acetaldehyde and ethanol levels in gastric juice after oral L-cysteine tablets and ethanol; assay type: in vivo, human; conditions: L-cysteine total 200 mg oral, film-coated tablets; ethanol 0.3 g/kg, 15 vol %; all measurements
Experimental: An analysis was carried out after administering L-cysteine (in a total of 200 mg) or placebo, orally to subjects. This cysteine or placebo was formulated into film-coated tablets as described above, with the cysteine or the placebo in granules together with a polymer not dissolving in the stomach and an inert bulking agent. The subjects swallowed said tablets with 200 ml of water. Immediately thereafter they were given ethanol (0.3 g/kg body weight) diluted in water to 15 vol %. Gastric juice samples were collected, and their L-cysteine concentrations were determined using HPLC, and two parallel samples. […] In all measurements, the average acetaldehyde concentration of the gastric juice was 2.6 times higher with placebo than with cysteine. […] The average ethanol concentration in the gastric juice was 5.0 vol-% in the first sample, declining to 0.9 vol-% in the 40-minute sample. A positive correlation emerged between the acetaldehyde concentration and the ethanol concentration.

[2] = L-cysteine concentration in gastric juice (HPLC) after oral tablets; assay type: in vivo, human; conditions: after oral administration of study formulations containing L-cysteine (total 200 mg)
Experimental: An analysis was carried out after administering L-cysteine (in a total of 200 mg) or placebo, orally to subjects. This cysteine or placebo was formulated into film-coated tablets as described above, with the cysteine or the placebo in granules together with a polymer not dissolving in the stomach and an inert bulking agent. The subjects swallowed said tablets with 200 ml of water. Immediately thereafter they were given ethanol (0.3 g/kg body weight) diluted in water to 15 vol %.
Gastric juice samples were collected, and their L-cysteine concentrations were determined using HPLC, and two parallel samples.
The mean cysteine concentrations are represented in FIG. 2. After administration of placebo formulations, no L-cysteine was detected. No significant correlation was found between the cysteine concentration and the acetaldehyde concentration.

N[C@@H](CS)C(=O)O [L-cysteine]
average acetaldehyde concentration of the gastric juice, times higher with placebo than with cysteine [1]: 2.6 times | L-cysteine detected in gastric juice [2]: detected in the gastric juice of all subjects
